In US20100120717A1, “KINASE INHIBITORS” (priority 2006, published 2010):

biological target: Aurora B/INCENP (Homo sapiens, UniProt Q96GD4); test: Determination of inhibition of AIK: Aurora B/INCENP Direct Fluorescence Polarization (IMAP) assay; type: biochemical; conditions: 10 uM ATP, 0.8 nM Aurora B/INCENP, 45 min at room temperature; read-out: IC50 of Exemplified Compounds Against AIK B
Description: Detection of the reaction product is performed by addition of Progressive IMAP binding reagent (Molecular Devices). Reaction product may be determined quantitatively by FP using an Analyst HT plate reader (Molecular Devices) with an excitation wavelength at 485 nm and emission at 530 nm and using a Fluorescein 505 dichroic mirror.
The assay reaction may be initiated as follows: 2 ul of (3×) 300 nM Fl-Peptide/30 uM ATP was added to each well of the plate, followed by the addition of 2 ul of (3×) inhibitor (2 fold serial dilutions for 11 data points for each inhibitor) containing 15% DMSO. Two microliters of (3×) 2.4 nM AuroraB/INCENP solution may be added to initiate the reaction (final enzyme concentration was 0.8 nM for Aurora B/INCENP). The reaction mixture may then be incubated at room temperature for 45 min, and quenched and developed by addition of 20 ul of 1 to 400 diluted Progressive IMAP binding reagent in 1× proprietary Progressive IMAP binding buffer A. Fluorescence polarization readings of the resulting reaction mixtures may be measured after a 60-minute incubation at room temperature.
IC50 values may be calculated by non-linear curve fitting of the compound concentrations and fluorescent polarization values to the standard IC50 equation.

Sequence of Aurora B/INCENP (Q96GD4 whole entry): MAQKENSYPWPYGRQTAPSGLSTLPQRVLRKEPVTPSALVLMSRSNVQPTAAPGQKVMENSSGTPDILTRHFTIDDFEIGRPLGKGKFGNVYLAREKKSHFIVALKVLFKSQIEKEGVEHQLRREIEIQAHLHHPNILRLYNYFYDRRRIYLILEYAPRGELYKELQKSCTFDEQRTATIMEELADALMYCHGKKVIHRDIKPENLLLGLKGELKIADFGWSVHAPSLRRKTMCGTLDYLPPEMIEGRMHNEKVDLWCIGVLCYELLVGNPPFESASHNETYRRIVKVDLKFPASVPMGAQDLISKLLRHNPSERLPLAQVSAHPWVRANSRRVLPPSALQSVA
Sequence of Aurora B/INCENP (Q9NQS7 whole entry partner): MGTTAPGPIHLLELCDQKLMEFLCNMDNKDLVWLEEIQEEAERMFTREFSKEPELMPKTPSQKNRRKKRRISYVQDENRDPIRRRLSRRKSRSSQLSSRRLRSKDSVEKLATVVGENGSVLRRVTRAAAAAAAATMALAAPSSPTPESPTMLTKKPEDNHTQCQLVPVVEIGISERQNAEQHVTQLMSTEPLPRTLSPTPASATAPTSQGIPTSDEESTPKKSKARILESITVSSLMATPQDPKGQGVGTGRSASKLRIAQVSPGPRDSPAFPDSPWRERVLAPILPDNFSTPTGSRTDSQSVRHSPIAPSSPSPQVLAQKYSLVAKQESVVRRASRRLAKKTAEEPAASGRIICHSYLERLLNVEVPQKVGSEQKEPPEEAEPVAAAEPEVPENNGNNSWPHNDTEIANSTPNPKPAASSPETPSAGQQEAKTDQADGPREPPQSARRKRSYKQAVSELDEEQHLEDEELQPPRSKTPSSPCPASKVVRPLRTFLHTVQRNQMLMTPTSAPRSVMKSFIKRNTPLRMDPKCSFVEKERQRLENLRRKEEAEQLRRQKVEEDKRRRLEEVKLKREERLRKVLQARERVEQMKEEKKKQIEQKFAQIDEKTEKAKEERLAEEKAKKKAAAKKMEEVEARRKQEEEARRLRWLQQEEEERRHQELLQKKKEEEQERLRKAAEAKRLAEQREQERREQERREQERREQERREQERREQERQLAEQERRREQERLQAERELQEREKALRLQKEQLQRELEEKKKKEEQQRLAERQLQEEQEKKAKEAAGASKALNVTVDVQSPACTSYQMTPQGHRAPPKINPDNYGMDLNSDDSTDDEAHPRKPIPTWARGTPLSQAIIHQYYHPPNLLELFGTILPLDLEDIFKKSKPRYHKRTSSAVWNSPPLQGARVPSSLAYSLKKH

| Compound | IC50 |
| --- | --- |
| CCS(=O)(=O)c1cccc(-c2ccc(OC[C@H](O)CN(C)C)c3[nH]c4ncc(C)cc4c23)c1 [Compound 232, (R)-1-(dimethylamino)-3-(5-(3-(ethylsulfonyl)phenyl)-3-methyl-9H-pyrido[2,3-b]indol-8-yloxy)propan-2-ol] | 6 to 10 nM |
| CCN(CCCOc1ccc(-c2cccc(S(=O)(=O)C3CC3)c2)c2c1[nH]c1ncc(C)cc12)CCOP(=O)(OC(C)(C)C)OC(C)(C)C [Compound 271, di-tert-butyl-2-((3-(5-(3-(cyclopropylsulfonyl)phenyl)-3-methyl-9H-pyrido[2,3-b]indol-8-yloxy)propyl)(ethyl)amino)ethyl phosphate] | ≤ 5 nM |
| CCN(CCCOc1ccc(-c2cccc(S(=O)(=O)C3CC3)c2)c2c1[nH]c1ncc(C)cc12)CCOP(=O)(O)O [Compound 272, 2-((3-(5-(3-(cyclopropylsulfonyl)phenyl)-3-methyl-9H-pyrido[2,3-b]indol-8-yloxy)propyl)(ethyl)amino)ethyl dihydrogen phosphate] | 6 to 10 nM |
| CN1CCC(COc2ccc(-c3cccc(C(=O)NC4CC4)c3)c3c2[nH]c2ncc(Cl)cc23)CC1 [Compound 285, 3-(3-chloro-8-((1-methylpiperidin-4-yl)methoxy)-9H-pyrido[2,3-b]indol-5-yl)-N-cyclopropylbenzamide] | 6 to 10 nM |
| CN1CCC(COc2ccc(-c3cccc(S(=O)(=O)C4CC4)c3)c3c2[nH]c2ncc(Cl)cc23)CC1 [Compound 286, 3-chloro-5-(3-(cyclopropylsulfonyl)phenyl)-8-((1-methylpiperidin-4-yl)methoxy)-9H-pyrido[2,3-b]indole] | 6 to 10 nM |
| CCNS(=O)(=O)c1cccc(-c2ccc(OCCCN(C)C)c3[nH]c4ncc(C)cc4c23)c1 [Compound 295, 3-(8-(3-(dimethylamino)propoxy)-3-methyl-9H-pyrido[2,3-b]indol-5-yl)-N-ethylbenzenesulfonamide] | 6 to 10 nM |
| CCS(=O)(=O)c1cccc(-c2ccc(OCCCN(C)CCOP(=O)(O)O)c3[nH]c4ncc(C)cc4c23)c1 [Compound 308, 2-((3-(5-(3-(ethylsulfonyl)phenyl)-3-methyl-9H-pyrido[2,3-b]indol-8-yloxy)propyl)(methyl)amino)ethyl dihydrogen phosphate] | ≤ 5 nM |
| Cc1cnc2[nH]c3c(OC[C@H](CN(C)C)OP(=O)(O)O)ccc(-c4cccc(S(=O)(=O)C5CC5)c4)c3c2c1 [Compound 314, (S)-1-(5-(3-(cyclopropylsulfonyl)phenyl)-3-methyl-9H-pyrido[2,3-b]indol-8-yloxy)-3-(dimethylamino)propan-2-yl dihydrogen phosphate] | ≤ 5 nM |
| Cc1cnc2[nH]c3c(OC[C@@H](CN(C)C)OP(=O)(O)O)ccc(-c4cccc(S(=O)(=O)C5CC5)c4)c3c2c1 [Compound 315, (R)-1-(5-(3-(cyclopropylsulfonyl)phenyl)-3-methyl-9H-pyrido[2,3-b]indol-8-yloxy)-3-(dimethylamino)propan-2-yl dihydrogen phosphate] | ≤ 5 nM |
